Source: US11261232B2, “TNFRSF14 / HVEM proteins and methods of use thereof” (MEMORIAL SLOAN KETTERING CANCER CENTER, priority 2015, dated 2022)

B1: sTNFRSF14: Pro37-Val202 soluble HVEM ectodomain polypeptide of SEQ ID NO. 6 (protein, listed as Homo sapiens)
chain: PALPSCKEDEYPVGSECCPKCSPGYRVKEACGELTGTVCEPCPPGTYIAHLNGLSKCLQCQMCDPAMGLRASRNCSRTENAVCGCSPGHFCIVQDGDHCAACRAYATSSPGQRVQKGGTESQDTLCQNCPPGTFSPNGTLEECQHQTKCSWLVTKAGAGTSSSHWV

What was measured:
primary human FL B cells = assay: BCR signaling (pSyk, pERK) in anti-IgG-stimulated primary FL B cells; assay type: cell-based; conditions: solHVEM 10 μg/ml
Method: FIG. 4A-E. HVEM blocks BCR signaling in a cell autonomous and BTLA dependent manner. FIG. 4A and FIG. 4B, Quantification of FACS analysis of phosphorylated BTK (pBTK) expression in BCL1 cells after stimulation with anti-IgM in the presence of solHVEM (10 μg/m1) or Ibrutinib (10 nM) without (FIG. 4A) or with (FIG. 4B) the knockdown of BTLA (shBTLA); FIG. 4C, FACS analysis of BTLA expression on purified primary human FL B cells distinguishes samples with high (BTLA^hi) and low (BTLAlo) surface BTLA expression); FIG. 4D, FACS analysis for the indicated signaling molecules in human primary FL B cells that were BTLA^hi or BTLAlo and stimulated with anti-human IgG (3 min; 10 μg/ml and H2O2 1 mM) in the presence or absence of the soluble HVEM ectodomain (solHVEM; 10 μg/ml) (right); FIG. 4E, Percentage of pSyk inhibition was calculated by comparing the ratio of MFI of pSyk+/−solHVEM and was correlated to BTLA ratio of MFI (r=0.697, p=0.03, Purified FL B cells, n=10, grade 1 and grade 2).
FIG. 11. Effect of HVEM on murine and human FL B cells. […]
Loss of HVEM and BTLA leads to BCR activation in murine lymphomas (FIGS. 2G and 3F). […] Briefly, the BCR signaling pathway in BCL1 mouse lymphoma cells was stimulated with IgM in the presence or absence of solHVEM (10 μg/ml) or the pharmacological BTK inhibitor ibrutinib (10 nM) and BTK phosphorylation was measured as an indicator of BCR pathway activation by flow cytometry. […] BTLA expression was analyzed across ten samples of purified human FL B cells by FACS, and the samples were divided into BTLA″ and BTLA^10 groups (FIG. 4C). […]
Purified IgGpos FL B cells were stimulated using FITC-conjugated goat anti-human IgG (Invitrogen, […]) in the presence of H2O2 (1 mM) with or without solHVEM (10 μg/mL). […] Phosphoprotein activation was quantified using Alexa 647-conjugated anti-pSyk (clone 17A/p-ZAP70), anti-pBLNK (clone j117-1278), or anti-pERK1/2 (clone 20A, BD Biosciences) and analyzed on B cells expressing clonal heavy and light chain gated using the anti-IgG FITC Ab and a PE-conjugated anti-kappa Ab (Southern Biotech).

[1] = test system: myc-Bc12 lymphoma cell line; assay: Cell viability by CellTiterGlo; assay type: cell-based, mouse; conditions: 5 ug/ml; 24 hours
Method: FIG. 18. sTNFRSF14 decreases cell viability in vitro. Cells of the myc-Bc12 lymphoma cell line were plated at a density of 1×10^5 cells/ml and they were treated with sTNFRSF14 (5 ug/ml) or vehicle. After 24 hours of treatment cell viability was assessed using CellTiterGlo reagent.

| Molecule | ERK inhibition in BTLAhi cells (primary human FL B cells; BTLAhi primary FL B cells) | SYK inhibition in BTLAhi cells (primary human FL B cells; BTLAhi primary FL B cells) | SYK and ERK inhibition in BTLAlo cells (primary human FL B cells; BTLAlo primary FL B cells) | cell viability [1] |
| --- | --- | --- | --- | --- |
| solHVEM: Leu39-Val202 soluble HVEM ectodomain polypeptide of SEQ ID NO. 8 | inhibition | inhibition | little effect | – |
| B1 | – | – | – | modest decrease |
